Literature values in patent publication US20200016107A1, “COMPOSITION AND METHOD FOR THE TOPICAL TREATMENT OF SEVERE ACNE” (CENTRO INTTERNACIONAL DE COSMIATRÍA, S.A.P.I. DE C.V., priority 2017, published 2020).

Tested on: sebaceous gland
Settings: oral administration

With `CC1=C(/C=C/C(C)=C/C=C/C(C)=C\C(=O)O)C(C)(C)CCC1` [13-cis-retinoic acid] as the compound, how does the “effect on sebaceous gland secretion” value read?
Its value is “almost completely suppresses this secretion”.

And the “patients with marked improvement” value?
Its value is ~100%.
